Source: patent publication US12391737B2, “Soluble NPY2 receptor agonists” (Boehringer Ingelheim International GmbH, priority 2020, dated 2025)

Experiments:
Solubility determination = details: for Sol6: pH 6; for Sol7: pH 7
Protocol: Peptides (as TFA salts) were weighed out in a filter unit (Mini-UniPrep Syringeless Filter 0.45 μm, Whatman), and 0.1 M sodium diphosphate buffer at pH 6.4 or 7.0 was added to achieve 10 mg/ml final concentration. The peptide was dissolved by shaking the filter unit horizontally at 600 rpm for 2 hours at room temperature. The sample was filtered, to remove any insoluble particles and diluted to 1 mg/ml in 50% acetonitrile. The control was prepared by weighing out the corresponding peptide and dissolving it in 50% acetonitrile to final concentration of 1 mg/ml. Both the control and sample were analysed with reversed phase chromatography. The area under the peak of the sample was compared to the control and the solubility was calculated based on that ratio.
The pH was measured and recorded for each sample.
System: UltiMate 3000 UPLC, ThermoFisher
Mobile phase A: 5% acetonitrile, 95% water, 0.03% trifluoracetic acid.
Mobile phase B: 95% acetonitrile, 5% water, 0.03% trifluoracetic acid.
Gradient: 0-100% mobile phase B (2 mins.)
Column temperature: 50° C.

[1] = biological target: T1, Human Neuropeptide Y2 Receptor (Homo sapiens, UniProt P49146); assay: Radioligand binding competition assay (RLB); details: Table 3, 125I-PYY(1-36) competition; read-out: Ki
T1 construct: purchased CHEMICON HTS066M
T1 sequence (P49146 1-381): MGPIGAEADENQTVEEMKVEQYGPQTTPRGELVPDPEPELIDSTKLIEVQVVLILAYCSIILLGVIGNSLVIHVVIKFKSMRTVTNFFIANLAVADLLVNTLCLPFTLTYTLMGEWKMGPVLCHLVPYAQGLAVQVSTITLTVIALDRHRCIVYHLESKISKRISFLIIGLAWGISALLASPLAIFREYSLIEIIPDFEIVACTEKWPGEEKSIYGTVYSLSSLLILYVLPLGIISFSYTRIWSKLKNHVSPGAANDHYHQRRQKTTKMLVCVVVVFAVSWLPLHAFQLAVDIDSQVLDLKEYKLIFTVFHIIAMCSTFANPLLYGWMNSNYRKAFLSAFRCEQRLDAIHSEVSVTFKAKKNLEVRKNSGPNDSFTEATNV
Protocol: The filtration RLB assay was carried out in 96-well plates in a final volume of 100 μl per well. Freeze-dried test peptides were dissolved in 100% dimethyl sulfoxide (DMSO) to stock solutions of 1 mM and serial dilutions were performed in assay buffer (50 mM HEPES, 5 mM MgCl2, 1 mM CaCl2, pH 7.4) containing 0.2% ovalbumin. […] Next, 80 μL membranes (HTS066M, ChemiSCREEN™ Human Neuropeptide Y2 Receptor Membrane Preparation, CHEMICON) were added to each well to give a final protein concentration of 0.5 μg/well. The plates were sealed and incubated at room temperature for 2 hours in a plate shaker set at 400 rpm. The incubation was stopped by vacuum filtration onto 0.5% polyethylene amine (PE) presoaked GF/C filters using a 96-well FilterMate™ harvester (Perkin Elmer) followed by four washes with 300 μl/well ice-cold wash buffer (50 mM HEPES, 500 mM NaCl, pH7.4). Filter plates were then dried for 60 min at room temperature and the bottom of the plates was sealed with backing tape UniFilter-96. Finally, 50 μl/well scintillation counter cocktail (Microscint20, Packard) was added and the radioactivity was counted in the Packard TopCount NXT scintillation counter. IC50 values (the half maximal inhibitory concentration of the agonist) were calculated by nonlinear regression analysis of sigmoidal dose-response curves.

CC[C@H](C)[C@H](NC(=O)[C@H](Cc1ccc(O)cc1)NC(=O)[C@H](Cc1ccc(O)cc1)NC(=O)[C@H](CCCNC(=N)N)NC(=O)[C@H](CCC(N)=O)NC(=O)[C@H](CC(C)C)NC(=O)[C@H](CCC(=O)O)NC(=O)[C@H](CCC(=O)O)NC(=O)[C@@H]1CCCN1C(=O)[C@H](CCC(=O)O)NC(=O)[C@H](C)NC(=O)[C@H](CC(=O)O)NC(=O)[C@H](C)NC(=O)[C@H](CCC(=O)O)NC(=O)[C@@H]1CCCN1C(=O)[C@H](CCCCNC(=O)CCCCCNC(=O)CC[C@H](NC(=O)CCCCCCCCCCCCCCCCC(=O)O)C(=O)O)NC(=O)[C@H](CCC(=O)O)NC(=O)[C@@H]1CCCN1C(=O)[C@H](C)NC(=O)CC(C)C)C(=O)N[C@@H](C)C(=O)N[C@@H](CC(C)C)C(=O)N[C@@H](CCCNC(=N)N)C(=O)N[C@@H](Cc1c[nH]cn1)C(=O)N[C@@H](Cc1ccc(O)cc1)C(=O)N[C@@H](Cc1ccc(O)cc1)C(=O)N[C@@H](CC(N)=O)C(=O)N[C@@H](Cc1c[nH]c2ccccc12)C(=O)N[C@@H](CC(C)C)C(=O)N[C@H](C(=O)N[C@@H](CCCNC(=N)N)C(=O)N[C@@H](CCC(N)=O)C(=O)N[C@@H](CCCNC(=N)N)C(=O)N[C@@H](Cc1ccc(O)cc1)C(N)=O)[C@@H](C)O [Compound 1, N{alpha-4}-(3-methylbutanoyl)-N{epsilon-7}-(6-[(4S)-4-carboxy-4-(17-carboxyheptadecanamido)butanamido]hexanoyl)[4A,7K,9E,10A,13E,18Q,22I,23A,28Y,30W,31L]-hPYY(4-36)]
Sol6 (Solubility determination): 10.0 mg/mL | Sol7 (Solubility determination): 7.6 mg/mL | Ki [1]: 2.05 nM

CC(C)CC(=O)N[C@@H](C)C(=O)N1CCC[C@H]1C(=O)N[C@@H](C)C(=O)N[C@@H](CCCCNC(=O)CCCCCNC(=O)CC[C@H](NC(=O)CCCCCCCCCCCCCCCCC(=O)O)C(=O)O)C(=O)N1CCC[C@H]1C(=O)N[C@@H](CCC(=O)O)C(=O)N[C@@H](C)C(=O)N[C@@H](CC(=O)O)C(=O)N[C@@H](C)C(=O)N[C@@H](CCC(=O)O)C(=O)N1CCC[C@H]1C(=O)N[C@@H](CCC(=O)O)C(=O)N[C@@H](CCC(=O)O)C(=O)N[C@@H](CC(C)C)C(=O)N[C@@H](CCC(N)=O)C(=O)N[C@@H](CCCNC(=N)N)C(=O)N[C@@H](Cc1ccc(O)cc1)C(=O)N[C@@H](Cc1ccc(O)cc1)C(=O)N[C@H](C(=O)N[C@@H](C)C(=O)N[C@@H](CC(C)C)C(=O)N[C@@H](CCCNC(=N)N)C(=O)N[C@@H](Cc1c[nH]cn1)C(=O)N[C@@H](Cc1ccc(O)cc1)C(=O)N[C@@H](Cc1ccc(O)cc1)C(=O)N[C@@H](CC(N)=O)C(=O)N[C@@H](Cc1c[nH]c2ccccc12)C(=O)N[C@@H](CC(C)C)C(=O)N[C@H](C(=O)N[C@@H](CCCNC(=N)N)C(=O)N[C@@H](CCC(N)=O)C(=O)N[C@@H](CCCNC(=N)N)C(=O)N[C@@H](Cc1ccc(O)cc1)C(N)=O)[C@@H](C)O)C(C)C [Compound 3, N{alpha-4}-(3-methylbutanoyl)-N{epsilon-7}-(6-[(4S)-4-carboxy-4-(17-carboxyheptadecanamido)butanamido]hexanoyl)[4A,6A,7K,9E,10A,13E,18Q,22V,23A,28Y,30W,31L]-hPYY(4-36)]
Sol6 (Solubility determination): 10.0 mg/mL | Sol7 (Solubility determination): 10.0 mg/mL | Ki [1]: 1.57 nM

CC(C)CC(=O)N[C@@H](C)C(=O)N1CCC[C@H]1C(=O)N[C@@H](CCC(=O)O)C(=O)N[C@@H](CCCCNC(=O)CCCCCNC(=O)CC[C@H](NC(=O)CCCCCCCCCCCCCCCCC(=O)O)C(=O)O)C(=O)N1CCC[C@H]1C(=O)N[C@@H](CCC(=O)O)C(=O)N[C@@H](CCC(=O)O)C(=O)N[C@@H](C)C(=O)N[C@@H](C)C(=O)N[C@@H](CCC(=O)O)C(=O)N1CCC[C@H]1C(=O)N[C@@H](CCC(=O)O)C(=O)N[C@@H](CCC(=O)O)C(=O)N[C@@H](CC(C)C)C(=O)N[C@@H](CCC(N)=O)C(=O)N[C@@H](CCCNC(=N)N)C(=O)N[C@@H](Cc1ccc(O)cc1)C(=O)N[C@@H](Cc1ccc(O)cc1)C(=O)N[C@H](C(=O)N[C@@H](CO)C(=O)N[C@@H](CC(C)C)C(=O)N[C@@H](CCCNC(=N)N)C(=O)N[C@@H](Cc1c[nH]cn1)C(=O)N[C@@H](Cc1ccc(O)cc1)C(=O)N[C@@H](Cc1ccc(O)cc1)C(=O)N[C@@H](CC(N)=O)C(=O)N[C@@H](Cc1c[nH]c2ccccc12)C(=O)N[C@@H](CC(C)C)C(=O)N[C@H](C(=O)N[C@@H](CCCNC(=N)N)C(=O)N[C@@H](CCC(N)=O)C(=O)N[C@@H](CCCNC(=N)N)C(=O)N[C@@H](Cc1ccc(O)cc1)C(N)=O)[C@@H](C)O)C(C)C [Compound 4, N{alpha-4}-(3-methylbutanoyl)-N{epsilon-7}-(6-[(4S)-4-carboxy-4-(17-carboxyheptadecanamido)butanamido]hexanoyl)[4A,7K,9E,11A,13E,18Q,22V,28Y,30W,31L]-hPYY(4-36)]
Sol6 (Solubility determination): 10.0 mg/mL | Sol7 (Solubility determination): 10.0 mg/mL | Ki [1]: 4.65 nM

CC(C)CC(=O)N[C@@H](C)C(=O)N1CCC[C@H]1C(=O)N[C@@H](C)C(=O)N[C@@H](CCCCNC(=O)CCCCCNC(=O)CC[C@H](NC(=O)CCCCCCCCCCCCCCCCC(=O)O)C(=O)O)C(=O)N1CCC[C@H]1C(=O)N[C@@H](CCC(=O)O)C(=O)N[C@@H](CCC(=O)O)C(=O)N[C@@H](CC(=O)O)C(=O)N[C@@H](C)C(=O)N[C@@H](CO)C(=O)N1CCC[C@H]1C(=O)N[C@@H](CCC(=O)O)C(=O)N[C@@H](CCC(=O)O)C(=O)N[C@@H](CC(C)C)C(=O)N[C@@H](CCC(N)=O)C(=O)N[C@@H](CCCNC(=N)N)C(=O)N[C@@H](CCC(N)=O)C(=O)N[C@@H](Cc1ccc(O)cc1)C(=O)N[C@H](C(=O)N[C@@H](CO)C(=O)N[C@@H](CC(C)C)C(=O)N[C@@H](CCCNC(=N)N)C(=O)N[C@@H](Cc1c[nH]cn1)C(=O)N[C@@H](Cc1ccc(O)cc1)C(=O)N[C@@H](Cc1ccc(O)cc1)C(=O)N[C@@H](CC(N)=O)C(=O)N[C@@H](Cc1c[nH]c2ccccc12)C(=O)N[C@@H](CC(C)C)C(=O)N[C@H](C(=O)N[C@@H](CCCNC(=N)N)C(=O)N[C@@H](CCC(N)=O)C(=O)N[C@@H](CCCNC(=N)N)C(=O)N[C@@H](Cc1ccc(O)cc1)C(N)=O)[C@@H](C)O)C(C)C [Compound 5, N{alpha-4}-(3-methylbutanoyl)-N{epsilon-7}-(6-[(4S)-4-carboxy-4-(17-carboxyheptadecanamido)butanamido]hexanoyl)[4A,6A,7K,9E,18Q,20Q,22V,28Y,30W,31L]-hPYY(4-36)]
Sol6 (Solubility determination): 3.6 mg/mL | Sol7 (Solubility determination): 8.8 mg/mL | Ki [1]: 12.7 nM

CC(C)CC(=O)N[C@@H](C)C(=O)N1CCC[C@H]1C(=O)N[C@@H](CCC(=O)O)C(=O)N[C@@H](CCCCNC(=O)CCCCCNC(=O)CC[C@H](NC(=O)CCCCCCCCCCCCCCCCC(=O)O)C(=O)O)C(=O)N1CCC[C@H]1C(=O)N[C@@H](CCC(=O)O)C(=O)N[C@@H](CCC(=O)O)C(=O)N[C@@H](CC(=O)O)C(=O)N[C@@H](CCC(=O)O)C(=O)N[C@H](C(=O)N1CCC[C@H]1C(=O)N[C@@H](CCC(=O)O)C(=O)N[C@@H](CCC(=O)O)C(=O)N[C@@H](CC(C)C)C(=O)N[C@@H](CCC(N)=O)C(=O)N[C@@H](CCCNC(=N)N)C(=O)N[C@@H](Cc1ccc(O)cc1)C(=O)N[C@@H](Cc1ccc(O)cc1)C(=O)N[C@H](C(=O)N[C@@H](CO)C(=O)N[C@@H](CC(C)C)C(=O)N[C@@H](CCCNC(=N)N)C(=O)N[C@@H](Cc1c[nH]cn1)C(=O)N[C@@H](Cc1ccc(O)cc1)C(=O)N[C@@H](Cc1ccc(O)cc1)C(=O)N[C@@H](CC(N)=O)C(=O)N[C@@H](Cc1c[nH]c2ccccc12)C(=O)N[C@@H](CC(C)C)C(=O)N[C@H](C(=O)N[C@@H](CCCNC(=N)N)C(=O)N[C@@H](CCC(N)=O)C(=O)N[C@@H](CCCNC(=N)N)C(=O)N[C@@H](Cc1ccc(O)cc1)C(N)=O)[C@@H](C)O)C(C)C)[C@@H](C)O [Compound 8, N{alpha-4}-(3-methylbutanoyl)-N{epsilon-7}-(6-[(4S)-4-carboxy-4-(17-carboxyheptadecanamido)butanamido]hexanoyl)[4A,7K,9E,12E,13T,18Q,22V,28Y,30W,31L]-hPYY(4-36)]
Sol6 (Solubility determination): 9.7 mg/mL | Sol7 (Solubility determination): 9.6 mg/mL | Ki [1]: 106 nM
